Measured values from patent US20240174622A1, “COMPOUND AND RADIOACTIVE LABELING COMPOUND” (NIHON MEDI-PHYSICS CO., LTD., priority 2021, published 2024).
Values joined by “and” are separate entries in the source; they are usually repeats but may differ in a detail not shown here. Equal entries are not always repeated.

Assays:
[1] = tested on: LNCaP tumor-transplanted mouse; experiment: Internal radioactivity distribution using LNCaP tumor-transplanted mouse; format: in vivo
Experimental: (§1) The animal test was performed in compliance with the guidelines of Kyoto University Animal Experiment Committee. Male CB17/IcrJcl-Prkdc^scid mice were purchased from CLEA Japan, Inc. The animals were kept under 12 h/12 h, day/night cycle conditions and fed ad libitum with food and water. LNCaP cells (1.0×10^7 cells/mouse) or PC-3 cells (1.0×10^7 cells/mouse) were suspended in a mixture of PBS and Matrigel manufactured by Corning Life Sciences (1:1, 150 μL) and the suspension was subcutaneously transplanted to the right shoulder of mice under isoflurane anesthesia. Thereafter, the mice were kept for 40 to 60 days.
LNCaP or PC-3 tumor-implanted mice were administered saline solutions (185 kBq, 100 μL) of [^111In]In-PSMA-DA1 or [^111In]In-PSMA-DB from the tail vein (n=3 each). Mice were euthanized 1, 4, 24, 48, 96, and 192 hours after administration. Thereafter, blood and each organ were recovered, and the mass and radioactivity of the organs were measured.
The percentage (% ID) of the radioactivity amount to the administered radioactivity amount (injected dose) is shown as the value (% ID/g) divided by the blood mass or the organ mass (g).
LNCaP tumor-implanted mice prepared by the same method as in Example 1-1 were administered a saline solution (241 kBq/100 μL) of [^111In]In-PtDA from the tail vein (n=3). Mice were euthanized 1, 24, and 48 hours after administration. Thereafter, blood and each organ were recovered, and the mass and radioactivity of the organs were measured.
LNCaP tumor-implanted mice prepared by the same method as in Example 1-1 were administered a saline solution (259 kBq/100 μL each) of each of the radiolabeled compounds in Examples 3-1 to 3-3 or Comparative Examples 2-1 to 2-2 from the tail vein (n=2 to 3). Mice were euthanized 1, 4, 24, 48, 96, and 192 hours after administration. Thereafter, blood and each organ were recovered, and the mass and radioactivity of the organs were measured.
as §1, with “LNCaP cells (4.3×10^6 cells/mouse) or” for “LNCaP cells (1.0×10^7 cells/mouse) or”, “PC-3 cells (3.3×10^6 cells/mouse) were” for “PC-3 cells (1.0×10^7 cells/mouse) were”, “shoulder of CB17/IcrJcl-Prkdc^scid mice under” for “shoulder of mice under”
Mice were euthanized 1, 4, 24, 48, 96, and 192 hours after administration. Thereafter, blood and each organ were recovered, and the mass and radioactivity of the organs were measured.
The results are shown in Table 12 (Mean value±standard deviation, n=3).

LNCaP tumor = experiment: SPECT/CT using LNCaP tumor-transplanted mouse; format: in vivo
Experimental: (§2) LNCaP tumor-implanted mice prepared by the method described above were administered saline solutions (1.9 to 3.0 MBq, 150 μL) of [^111In]In-PSMA-DA1 or [^111In]In-PSMA-DB from the tail vein. SPECT/CT was performed 24 and 48 hours after administration with FX3300 pre-clinical imaging system, which is manufactured by Gamma Medica-Ideas. Imaging was performed using a pinhole collimator with a diameter of 1.0 mm at a rotation radius of 35 mm, a projection time of 70 seconds, and the number of projections of 32 times under isoflurane anesthesia. After SPECT, CT (Tube voltage: 60 kV, Tube current: 350 μA) was performed. Image reconstruction was performed on the projection data of SPECT through three-dimensional ordered subset expectation maximization method (8 subsets, 5 iterations).
In the figure, the part indicated by the arrow is the location of the tumor, and the part indicated by the circle is the location of the kidney. The higher the SUV, the higher the radioactivity accumulation. […]
as §2, with “SPECT/CT” for “LNCaP tumor-implanted mice prepared by the method described above were administered saline solutions (1.9 to 3.0 MBq, 150 μL) of [^111In]In-PSMA-DA1 or [^111In]In-PSMA-DB from the tail vein. SPECT/CT”, “24, 48,” for “24”, “96” for “48”

[2] = 24 (and 48) hours after administration

## O=C(O)CC[C@H](NC(=O)N[C@@H](CCCCNC(=O)[C@H](Cc1ccc2ccccc2c1)NC(=O)[C@H]1CC[C@H](CNC(=O)CCC(C(=O)O)N2CCN(CC(=O)O)CCN(C(CCC(=O)N[C@@H](CCCCNC(=O)CCCc3ccc(I)cc3)C(=O)O)C(=O)O)CCN(CC(=O)O)CC2)CC1)C(=O)O)C(=O)O (stereo partly shown) [[^111In]In-PSMA-NAT-DA1, metal not drawn]
[1]; 1 h after administration
  Blood: 39.8 ± 2.91 % ID/g
  Brain: 0.63 ± 0.03 % ID/g
  Heart: 10.8 ± 1.31 % ID/g
  Intestine: 3.40 ± 0.24 % ID/g
  Kidney: 41.5 ± 4.27 % ID/g
  LNCaP Tumor: 23.0 ± 2.20 % ID/g
  Liver: 8.24 ± 2.38 % ID/g
  Lung: 28.1 ± 8.65 % ID/g
  Muscle: 2.82 ± 0.55 % ID/g
  Pancreas: 7.32 ± 1.27 % ID/g
  Spleen: 31.2 ± 2.84 % ID/g
  Stomach (% ID): 0.94 ± 0.35 % ID
[1]; 4 h after administration
  Blood: 38.8 ± 8.25 % ID/g
  Brain: 0.83 ± 0.20 % ID/g
  Heart: 12.2 ± 2.44 % ID/g
  Intestine: 3.47 ± 0.42 % ID/g
  Kidney: 66.2 ± 13.0 % ID/g
  LNCaP Tumor: 43.6 ± 8.49 % ID/g
  Liver: 8.38 ± 2.27 % ID/g
  Lung: 26.5 ± 5.70 % ID/g
  Muscle: 3.69 ± 0.83 % ID/g
  Pancreas: 5.85 ± 1.34 % ID/g
  Spleen: 23.0 ± 3.16 % ID/g
  Stomach (% ID): 1.32 ± 0.19 % ID
[1]; 24 h after administration
  Blood: 10.9 ± 5.55 % ID/g
  Brain: 0.27 ± 0.13 % ID/g
  Heart: 3.14 ± 1.52 % ID/g
  Intestine: 1.26 ± 0.70 % ID/g
  Kidney: 37.1 ± 19.3 % ID/g
  LNCaP Tumor: 51.9 ± 39.3 % ID/g
  Liver: 2.73 ± 1.08 % ID/g
  Lung: 8.76 ± 4.02 % ID/g
  Muscle: 1.23 ± 0.36 % ID/g
  Spleen: 13.5 ± 8.18 % ID/g
  Stomach (% ID): 0.28 ± 0.16 % ID
[1]; 48 h after administration
  Blood: 12.3 % ID/g and 12.3 ± 1.56 % ID/g
  Brain: 0.45 ± 0.03 % ID/g
  Heart: 4.68 ± 0.92 % ID/g
  Intestine: 1.39 ± 0.06 % ID/g
  Kidney: 79.0 ± 6.78 % ID/g
  LNCaP Tumor: 131.6 ± 22.0 % ID/g
  Liver: 4.49 ± 0.71 % ID/g
  Lung: 11.1 ± 2.24 % ID/g
  Muscle: 1.48 ± 0.31 % ID/g
  Pancreas: 2.26 ± 0.15 % ID/g
  Spleen: 17.8 ± 1.05 % ID/g
  Stomach (% ID): 0.44 ± 0.09 % ID
[1]; 96 h after administration
  Blood: 4.07 ± 1.37 % ID/g
  Brain: 0.18 ± 0.04 % ID/g
  Heart: 2.10 ± 0.83 % ID/g
  Intestine: 0.86 ± 0.54 % ID/g
  Kidney: 22.0 ± 14.9 % ID/g
  LNCaP Tumor: 56.2 ± 35.6 % ID/g
  Liver: 2.31 ± 0.89 % ID/g
  Lung: 4.55 ± 2.33 % ID/g
  Muscle: 0.59 ± 0.09 % ID/g
  Pancreas: 2.60 ± 3.18 % ID/g
  Spleen: 6.33 ± 5.25 % ID/g
  Stomach (% ID): 0.19 ± 0.10 % ID
[1]; 192 h after administration
  Blood: 2.47 ± 0.52 % ID/g
  Heart: 1.19 ± 0.24 % ID/g
  Intestine: 0.55 ± 0.15 % ID/g
  Kidney: 11.9 ± 2.08 % ID/g
  LNCaP Tumor: 35.0 ± 27.3 % ID/g
  Liver: 2.25 ± 0.45 % ID/g
  Lung: 2.81 ± 0.36 % ID/g
  Muscle: 0.33 ± 0.05 % ID/g
  Pancreas: 0.94 ± 0.32 % ID/g
  Spleen: 3.77 ± 0.54 % ID/g
  Stomach (% ID): 0.12 ± 0.01 % ID
LNCaP tumor; [2]
  radioactivity accumulation at the LNCaP tumor in SPECT/CT: significant radioactivity accumulation
  radioactivity accumulation at the kidney in SPECT/CT: also observed
LNCaP tumor; 96 hours after administration
  radioactivity accumulation at the kidney in SPECT/CT: hardly observed
